Earlier results as cited in patent US20220288273A1, “OSTEOINDUCTIVE MODIFIED GELATIN HYDROGELS AND METHODS OF MAKING AND USING THE SAME” (THE REGENTS OF THE UNIVERSITY OF CALIFORNIA, priority 2019, published 2022).

Row | Structure (SMILES) | water solubility
1 | CC(C)(O)C(=O)c1ccc(OCCO)cc1 [Irgacure-2959, 2-Hydroxy-4′-(2-hydroxyethoxy)-2-methylpropiophenone] | low water solubility
2 | Cc1cc(C)c(C(=O)P(=O)([O-])c2ccccc2)c(C)c1.[Li+] [LAP, Lithium phenyl-2,4,6-trimethylbenzoylphosphinate] | high water solubility
